# According to patent US11746116B2, “Antibiotic resistance breakers” (KING'S COLLEGE LONDON, priority 2017, dated 2023):
# Like-named read-outs stand apart in the source and are kept apart here.
# Test system: extended bacterial panel
# Experiment: MIC against an extended bacterial panel (Table 15)
# Type: cell-based
compound,measurement,setting,value
CC(=O)NC[C@H]1CN(c2ccc(N3CCOCC3)c(F)c2)C(=O)O1 [Linezolid],MIC,"Staphylococcus aureus, ATCC 700699 / MRSA / VISA, Staphylococcus aureus Mu50, ATCC 700699, MRSA/VISA, read-out: MIC",2 µg/mL
same,MIC,"Staphylococcus aureus, MRSA / NRS 3 / VISA, Staphylococcus aureus NRS3, MRSA/VISA, read-out: MIC",1 µg/mL
same,MIC,"Staphylococcus aureus, MRSA / NRS 17 / VISA, Staphylococcus aureus NRS17, MRSA/VISA, read-out: MIC",2 µg/mL
same,MIC,"Staphylococcus aureus, MRSA / NRS 22 / USA600 / VISA, Staphylococcus aureus NRS22, USA600 MRSA/VISA, read-out: MIC",4 µg/mL
same,MIC,"Staphylococcus aureus, MRSA / NRS 56 / VISA, Staphylococcus aureus NRS56, MRSA/VISA, read-out: MIC",2 µg/mL
same,MIC,"Staphylococcus aureus, MRSA / NRS 100, Staphylococcus aureus COL, NRS100, MRSA, read-out: MIC",2 µg/mL
same,MIC,"Staphylococcus aureus, MRSA / NRS 269, Staphylococcus aureus NRS269, MRSA TGC-NS, read-out: MIC",2 µg/mL
same,MIC,"Staphylococcus aureus, MRSA / NRS 402 / VISA, Staphylococcus aureus NRS402, MRSA/VISA DAP-NS",1 µg/mL
same,MIC,"Staphylococcus aureus, MRSA / VISA, Staphylococcus aureus FDA-CDC AR-BANK# 0215, MRSA/VISA, read-out: MIC",4 µg/mL
same,MIC,"Staphylococcus aureus, MRSA / VISA, Staphylococcus aureus FDA-CDC AR-BANK# 0216, MRSA/VISA, read-out: MIC",2 µg/mL
same,MIC,"Staphylococcus aureus, MRSA / VISA, Staphylococcus aureus FDA-CDC AR-BANK# 0217, MRSA/VISA, read-out: MIC",1 µg/mL
same,MIC,"Staphylococcus aureus, MRSA / VISA, Staphylococcus aureus FDA-CDC AR-BANK# 0218, MRSA/VISA Mupirocin-R, read-out: MIC",1 µg/mL
same,MIC,"Staphylococcus aureus, MRSA / VISA, Staphylococcus aureus FDA-CDC AR-BANK# 0219, MRSA/VISA, read-out: MIC",2 µg/mL
same,MIC,"Staphylococcus aureus, MRSA / VISA, Staphylococcus aureus FDA-CDC AR-BANK# 0220, MRSA/VISA, read-out: MIC",2 µg/mL
same,MIC,"Staphylococcus aureus, MRSA / VISA, Staphylococcus aureus FDA-CDC AR-BANK# 0221, MRSA/VISA, read-out: MIC",2 µg/mL
same,MIC,"Staphylococcus aureus, MRSA / VISA, Staphylococcus aureus FDA-CDC AR-BANK# 0223, MRSA/VISA, read-out: MIC",2 µg/mL
same,MIC,"Staphylococcus aureus, MRSA / VISA, Staphylococcus aureus FDA-CDC AR-BANK# 0224, MRSA/VISA Mupirocin-R, read-out: MIC",4 µg/mL
same,MIC,"Staphylococcus aureus, MRSA / VISA, Staphylococcus aureus FDA-CDC AR-BANK# 0225, MRSA/VISA, read-out: MIC",2 µg/mL
same,MIC,"Staphylococcus aureus, MRSA / VISA, Staphylococcus aureus FDA-CDC AR-BANK# 0226, MRSA/VISA, read-out: MIC",2 µg/mL
same,MIC,"Staphylococcus aureus, MRSA / VISA, Staphylococcus aureus FDA-CDC AR-BANK# 0227, MRSA/VISA, read-out: MIC",4 µg/mL
same,MIC,"Staphylococcus aureus, MRSA / VISA, Staphylococcus aureus FDA-CDC AR-BANK# 0228, MRSA/VISA Mupirocin-R, read-out: MIC",2 µg/mL
same,MIC,"Staphylococcus aureus, MRSA / VRSA, Staphylococcus aureus VRS1, VanA MRSA/VRSA, read-out: MIC",2 µg/mL
same,MIC,"Staphylococcus aureus, MRSA / VRSA, Staphylococcus aureus VRS2, VanA MRSA/VRSA, read-out: MIC",2 µg/mL
same,MIC,"Staphylococcus aureus, MRSA / VRSA, Staphylococcus aureus VRS3a, VanA MRSA/VRSA, read-out: MIC",4 µg/mL
same,MIC,"Staphylococcus aureus, MRSA / VRSA, Staphylococcus aureus VRS11b, VanA MRSA/VRSA, read-out: MIC",2 µg/mL
same,MIC,"Staphylococcus aureus, MRSA, Staphylococcus aureus ECL 2963666, MRSA DAP-NS, read-out: MIC",1 µg/mL
same,MIC,"Staphylococcus aureus, NRS 12 / VISA, Staphylococcus aureus NRS12, VISA, read-out: MIC",4 µg/mL
same,MIC,"Staphylococcus aureus, VISA, Staphylococcus aureus FDA-CDC AR-BANK# 0222, VISA, read-out: MIC",2 µg/mL
same,MIC,"Staphylococcus aureus, VRSA, Staphylococcus aureus ECL 2963646, VRSA, read-out: MIC",2 µg/mL
same,MIC,"Staphylococcus epidermidis, NRS7, Staphylococcus epidermidis NRS7, VISE, read-out: MIC",4 µg/mL
same,MIC,"Staphylococcus epidermidis, NRS8, Staphylococcus epidermidis NRS8, VISE, read-out: MIC",2 µg/mL
same,MIC,"Staphylococcus epidermidis, NRS60, Staphylococcus epidermidis NRS60, VISE, read-out: MIC",2 µg/mL
"CN(C)c1cc(NC(=O)CNC(C)(C)C)c(O)c2c1C[C@H]1C[C@H]3[C@H](N(C)C)C(O)=C(C(N)=O)C(=O)[C@@]3(O)C(O)=C1C2=O [Tigecycline, tigecycline, reference compound]",MIC,"Enterococcus faecalis, ATCC29212, Enterococcus faecalis ATCC 29212",0.125 µg/mL
same,MIC,"Enterococcus faecalis, ATCC51299, Enterococcus faecalis ATCC 51299, VanB",0.0625 µg/mL
same,MIC,"Enterococcus faecalis, ATCC51575, Enterococcus faecalis ATCC 51575, VanB",0.125 µg/mL
same,MIC,"Enterococcus faecalis, ATCC700802, Enterococcus faecalis ATCC 700802, VanB",0.125 µg/mL
same,MIC,"Enterococcus faecalis, CCUG47775, Enterococcus faecalis CCUG 47775, Van A",0.125 µg/mL
same,MIC,"Enterococcus faecium, CCUG59167, Enterococcus faecium TUH44-29, CCUG 59167, Van A",0.0625 µg/mL
same,MIC,"Enterococcus gallinarum, ATCC 49608 / GALLINARUM, Enterococcus gallinarum ATCC 49608, VanC",0.125 µg/mL
